Measured values as given in patent US9636418B2 (priority 2013, dated 2017).
Read-outs that look alike come from different tables or passages of the source.

Target: hNav1.7 (Homo sapiens, UniProt Q15858)
Experiment: cell-based
Type: cell-based
Conditions: for IC50: PatchXpress, read-out: PX hNav1.7 Tonic IC50
[1] = * = at high concentrations compound would wash off slowly or not at all

hNav1.7, sequence (Q15858 whole entry): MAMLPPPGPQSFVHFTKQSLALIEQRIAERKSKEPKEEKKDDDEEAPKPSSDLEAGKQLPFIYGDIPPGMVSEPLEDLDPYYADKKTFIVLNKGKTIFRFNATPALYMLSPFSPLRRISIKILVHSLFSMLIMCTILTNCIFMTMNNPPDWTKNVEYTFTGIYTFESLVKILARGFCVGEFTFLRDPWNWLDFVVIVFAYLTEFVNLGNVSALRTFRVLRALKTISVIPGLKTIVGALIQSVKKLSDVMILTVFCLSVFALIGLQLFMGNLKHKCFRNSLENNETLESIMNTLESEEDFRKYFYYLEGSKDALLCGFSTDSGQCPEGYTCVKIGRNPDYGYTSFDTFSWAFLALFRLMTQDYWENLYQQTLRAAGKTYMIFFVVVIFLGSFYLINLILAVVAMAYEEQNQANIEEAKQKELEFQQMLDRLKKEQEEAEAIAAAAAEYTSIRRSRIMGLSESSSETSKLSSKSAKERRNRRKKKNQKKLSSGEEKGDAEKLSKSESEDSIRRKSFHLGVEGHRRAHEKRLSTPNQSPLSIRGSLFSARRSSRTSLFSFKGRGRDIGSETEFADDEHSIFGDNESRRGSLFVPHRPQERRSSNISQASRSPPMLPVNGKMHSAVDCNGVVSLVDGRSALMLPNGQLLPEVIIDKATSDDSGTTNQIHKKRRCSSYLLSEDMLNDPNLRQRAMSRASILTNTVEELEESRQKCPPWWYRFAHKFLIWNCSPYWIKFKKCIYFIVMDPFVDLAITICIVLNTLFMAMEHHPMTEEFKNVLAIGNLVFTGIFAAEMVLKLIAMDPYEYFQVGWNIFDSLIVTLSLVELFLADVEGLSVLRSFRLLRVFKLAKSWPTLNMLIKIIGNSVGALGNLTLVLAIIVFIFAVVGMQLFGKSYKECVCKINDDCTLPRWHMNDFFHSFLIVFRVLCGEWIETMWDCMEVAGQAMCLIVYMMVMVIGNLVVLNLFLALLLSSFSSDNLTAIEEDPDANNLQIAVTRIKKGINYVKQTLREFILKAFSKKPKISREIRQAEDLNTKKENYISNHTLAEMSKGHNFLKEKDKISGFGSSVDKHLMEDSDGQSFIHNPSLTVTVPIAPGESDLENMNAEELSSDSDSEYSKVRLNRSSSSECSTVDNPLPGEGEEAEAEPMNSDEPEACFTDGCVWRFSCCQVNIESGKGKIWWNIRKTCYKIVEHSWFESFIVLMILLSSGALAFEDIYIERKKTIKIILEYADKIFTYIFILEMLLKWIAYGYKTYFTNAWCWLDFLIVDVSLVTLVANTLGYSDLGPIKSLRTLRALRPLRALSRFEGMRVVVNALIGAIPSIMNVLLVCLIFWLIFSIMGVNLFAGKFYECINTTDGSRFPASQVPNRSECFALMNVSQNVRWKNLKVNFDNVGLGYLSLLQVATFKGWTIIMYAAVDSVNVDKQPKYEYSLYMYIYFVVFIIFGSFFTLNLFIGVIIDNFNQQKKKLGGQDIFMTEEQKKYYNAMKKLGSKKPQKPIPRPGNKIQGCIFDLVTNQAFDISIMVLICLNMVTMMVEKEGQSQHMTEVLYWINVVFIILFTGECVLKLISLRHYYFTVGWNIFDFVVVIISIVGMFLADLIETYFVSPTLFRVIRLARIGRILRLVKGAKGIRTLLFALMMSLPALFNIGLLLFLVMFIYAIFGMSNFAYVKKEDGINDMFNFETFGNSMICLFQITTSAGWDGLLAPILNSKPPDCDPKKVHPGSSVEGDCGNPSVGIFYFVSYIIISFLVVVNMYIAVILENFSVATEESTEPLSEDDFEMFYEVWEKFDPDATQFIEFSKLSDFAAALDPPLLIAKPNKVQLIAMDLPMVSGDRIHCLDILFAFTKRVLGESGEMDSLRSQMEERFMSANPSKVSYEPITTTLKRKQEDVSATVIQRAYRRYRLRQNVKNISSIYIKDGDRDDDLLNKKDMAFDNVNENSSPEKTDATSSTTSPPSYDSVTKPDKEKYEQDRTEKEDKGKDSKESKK

For `CCCC[C@@H]1NC(=O)[C@H](Cc2c[nH]c3ccccc23)NC(=O)[C@H](CCCCN)NC(=O)[C@H](CCC(N)=O)NC(=O)[C@@H](NC(=O)[C@H](Cc2ccc(O)cc2)NC(=O)[C@@H](N)[C@@H](C)CC)CSSC[C@@H]2NC(=O)[C@@H]3CSSC[C@@H](C(=O)N[C@@H](CCCNC(=N)N)C(=O)N[C@@H](CCCCN)C(=O)N[C@H](C(=O)N[C@H](C(N)=O)[C@@H](C)CC)[C@@H](C)CC)NC(=O)[C@H](Cc4c[nH]c5ccccc45)NC(=O)[C@H](CC(C)C)NC(=O)[C@H](CCCCN)NC(=O)[C@H](CSSC[C@H](NC(=O)[C@H]([C@@H](C)O)NC(=O)[C@H](Cc4c[nH]c5ccccc45)NC1=O)C(=O)N[C@@H](CC(=O)O)C(=O)N[C@@H](CO)C(=O)N[C@@H](CCCCN)C(=O)N[C@@H](CCCNC(=N)N)C(=O)N[C@@H](C)C(=O)N3)NC(=O)[C@H](CCCNC(=N)N)NC(=O)[C@H](CC(C)C)NC(=O)CNC(=O)[C@H](CCC(=O)O)NC2=O` [compound 360], the IC50 [1] was 0.519 nM.

Molecule `CCCC[C@@H]1NC(=O)[C@H](Cc2c[nH]c3ccccc23)NC(=O)[C@H](CCCCN)NC(=O)[C@H](CCC(N)=O)NC(=O)[C@@H](NC(=O)[C@H](Cc2ccc(O)cc2)NC(=O)[C@@H]2CCCN2)CSSC[C@@H]2NC(=O)[C@@H]3CSSC[C@@H](C(=O)N[C@@H](CCCNC(=N)N)C(=O)N[C@@H](CCCCN)C(=O)N[C@H](C(=O)N[C@H](C(N)=O)[C@@H](C)CC)[C@@H](C)CC)NC(=O)[C@H](Cc4c[nH]c5ccccc45)NC(=O)[C@H](CC(C)C)NC(=O)[C@H](CCCCN)NC(=O)[C@H](CSSC[C@H](NC(=O)[C@H]([C@@H](C)O)NC(=O)[C@H](Cc4c[nH]c5ccccc45)NC1=O)C(=O)N[C@@H](CC(=O)O)C(=O)N[C@@H](CO)C(=O)N[C@@H](CCCCN)C(=O)N[C@@H](CCCNC(=N)N)C(=O)N[C@@H](C)C(=O)N3)NC(=O)[C@H](CCCNC(=N)N)NC(=O)[C@H](CC(C)C)NC(=O)CNC(=O)[C@H](CCC(=O)O)NC2=O` [compound 362] has an IC50 [1] of 0.372 nM.

With [1-Nal7]JzTx-V(1-29) [SEQ ID NO: 30] the “hNav1.7 potency/activity compared with wild type JzTx-V” value was “retained hNav1.7 activity similar to the wild type peptide”.

`C=CC[C@H](N)C(=O)N[C@@H](Cc1ccc(O)cc1)C(=O)N[C@H]1CSSC[C@@H]2NC(=O)[C@@H]3CSSC[C@@H](C(=O)N[C@@H](CCCNC(=N)N)C(=O)N[C@@H](CCCCN)C(=O)N[C@H](C(=O)N[C@H](C(N)=O)[C@@H](C)CC)[C@@H](C)CC)NC(=O)[C@H](Cc4c[nH]c5ccccc45)NC(=O)[C@H](CC(C)C)NC(=O)[C@H](CCCCN)NC(=O)[C@H](CSSC[C@H](NC(=O)[C@H]([C@@H](C)O)NC(=O)[C@H](Cc4c[nH]c5ccccc45)NC(=O)[C@H](CCCC)NC(=O)[C@H](Cc4c[nH]c5ccccc45)NC(=O)[C@H](CCCCN)NC(=O)[C@H](CCC(N)=O)NC1=O)C(=O)N[C@@H](CC(=O)O)C(=O)N[C@@H](CO)C(=O)N[C@@H](CCCCN)C(=O)N[C@@H](CCCNC(=N)N)C(=O)N[C@@H](C)C(=O)N3)NC(=O)[C@H](CCCNC(=N)N)NC(=O)[C@H](CC(C)C)NC(=O)CNC(=O)[C@H](CCC(=O)O)NC2=O` [compound 367] showed an IC50 [1] of 0.488 nM.

`CCCC[C@@H]1NC(=O)[C@H](Cc2c[nH]c3ccccc23)NC(=O)[C@H](CCCCN)NC(=O)[C@H](CCC(N)=O)NC(=O)[C@@H](NC(=O)[C@H](Cc2ccc(O)cc2)NC(=O)[C@@H](N)Cc2ccc(O)cc2)CSSC[C@@H]2NC(=O)[C@@H]3CSSC[C@@H](C(=O)N[C@@H](CCCNC(=N)N)C(=O)N[C@@H](CCCCN)C(=O)N[C@H](C(=O)N[C@H](C(N)=O)[C@@H](C)CC)[C@@H](C)CC)NC(=O)[C@H](Cc4c[nH]c5ccccc45)NC(=O)[C@H](CC(C)C)NC(=O)[C@H](CCCCN)NC(=O)[C@H](CSSC[C@H](NC(=O)[C@H]([C@@H](C)O)NC(=O)[C@H](Cc4c[nH]c5ccccc45)NC1=O)C(=O)N[C@@H](CC(=O)O)C(=O)N[C@@H](CO)C(=O)N[C@@H](CCCCN)C(=O)N[C@@H](CCCNC(=N)N)C(=O)N[C@@H](C)C(=O)N3)NC(=O)[C@H](CCCNC(=N)N)NC(=O)[C@H](CC(C)C)NC(=O)CNC(=O)[C@H](CCC(=O)O)NC2=O` [compound 365] showed an IC50 [1] of 0.372 nM.

For `C#CC[C@H](N)C(=O)NCCCC[C@@H]1NC(=O)[C@H](CCCNC(=N)N)NC(=O)[C@H](CCCCN)NC(=O)[C@H](CO)NC(=O)[C@H](CC(=O)O)NC(=O)[C@@H]2CSSC[C@@H]3NC(=O)[C@H](CCC(=O)O)NC(=O)[C@H](CC(C)C)NC(=O)CNC(=O)[C@H](CCC(=O)O)NC(=O)[C@H](CSSC[C@H](NC(=O)[C@H](Cc4ccc(O)cc4)NC(=O)[C@@H](N)CCC)C(=O)N[C@@H](CCC(N)=O)C(=O)N[C@@H](CCCCN)C(=O)N[C@@H](Cc4c[nH]c5ccccc45)C(=O)N[C@@H](CC(C)C)C(=O)N[C@@H](Cc4c[nH]c5ccccc45)C(=O)N[C@@H]([C@@H](C)O)C(=O)N2)NC(=O)[C@H](CSSC[C@@H](C(=O)N[C@@H](CCCNC(=N)N)C(=O)N[C@@H](CCCCN)C(=O)N[C@@H](Cc2ccc(O)cc2)C(=O)N[C@H](C(N)=O)[C@@H](C)CC)NC(=O)[C@H](Cc2c[nH]c4ccccc24)NC(=O)[C@H](CC(C)C)NC(=O)[C@H](CCCCN)NC3=O)NC1=O` [compound 440], the IC50 (tonic block) was 1.95 nM.

Molecule `CCCC[C@@H]1NC(=O)[C@H](Cc2c[nH]c3ccccc23)NC(=O)[C@H](CCCCN)NC(=O)[C@H](CCC(N)=O)NC(=O)[C@@H](NC(=O)[C@H](Cc2ccc(O)cc2)NC(=O)CN)CSSC[C@@H]2NC(=O)[C@@H]3CSSC[C@@H](C(=O)N[C@@H](CCCNC(=N)N)C(=O)N[C@@H](CCCCN)C(=O)N[C@H](C(=O)N[C@H](C(N)=O)[C@@H](C)CC)[C@@H](C)CC)NC(=O)[C@H](Cc4c[nH]c5ccccc45)NC(=O)[C@H](CC(C)C)NC(=O)[C@H](CCCCN)NC(=O)[C@H](CSSC[C@H](NC(=O)[C@H]([C@@H](C)O)NC(=O)[C@H](Cc4c[nH]c5ccccc45)NC1=O)C(=O)N[C@@H](CC(=O)O)C(=O)N[C@@H](CO)C(=O)N[C@@H](CCCCN)C(=O)N[C@@H](CCCNC(=N)N)C(=O)N[C@@H](C)C(=O)N3)NC(=O)[C@H](CCCNC(=N)N)NC(=O)[C@H](CC(C)C)NC(=O)CNC(=O)[C@H](CCC(=O)O)NC2=O` [compound 359] has an IC50 [1] of 0.384 nM.

`CCCC[C@@H]1NC(=O)[C@H](Cc2c[nH]c3ccccc23)NC(=O)[C@H](CCCCN)NC(=O)[C@H](CCC(N)=O)NC(=O)[C@@H](NC(=O)[C@H](Cc2ccc(O)cc2)NC(=O)[C@H](C)N)CSSC[C@@H]2NC(=O)[C@@H]3CSSC[C@@H](C(=O)N[C@@H](CCCNC(=N)N)C(=O)N[C@@H](CCCCN)C(=O)N[C@H](C(=O)N[C@H](C(N)=O)[C@@H](C)CC)[C@@H](C)CC)NC(=O)[C@H](Cc4c[nH]c5ccccc45)NC(=O)[C@H](CC(C)C)NC(=O)[C@H](CCCCN)NC(=O)[C@H](CSSC[C@H](NC(=O)[C@H]([C@@H](C)O)NC(=O)[C@H](Cc4c[nH]c5ccccc45)NC1=O)C(=O)N[C@@H](CC(=O)O)C(=O)N[C@@H](CO)C(=O)N[C@@H](CCCCN)C(=O)N[C@@H](CCCNC(=N)N)C(=O)N[C@@H](C)C(=O)N3)NC(=O)[C@H](CCCNC(=N)N)NC(=O)[C@H](CC(C)C)NC(=O)CNC(=O)[C@H](CCC(=O)O)NC2=O` [compound 357] gave an IC50 [1] of 0.307 nM.
